{
  "source": "patent US8192962B2",
  "about": "“Processes for detecting toxic substances” (Daikin Industries, Ltd., priority 2001, dated 2012)",
  "system": "Transport facilitation protein genes",
  "assay": "DNA chip mRNA expression in yeast, transport facilitation protein genes (Table 5)",
  "type": "cell-based, Saccharomyces cerevisiae S288C",
  "outline": "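In this screen, yeast in logarithmic growth are challenged for two hours with a toxic substance at a non-lethal inhibitory concentration. Their mRNA, converted to Cy3- or Cy5-labeled cDNA, hybridizes at 65° C. to a chip spanning every yeast gene, and expression is expressed as a ratio to untreated cells.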",
  "data": [
    {"smiles": "[Cl][Pb][Cl]", "note": "[(4), PbCl2]", "values": [
      {"measurement": "The level of expressed mRNA in the presence of chemical substance/The level of expressed mRNA in the absence of chemical substance", "setting": "yeast gene YBL030C", "value": 0.9},
      {"measurement": "The level of expressed mRNA in the presence of chemical substance/The level of expressed mRNA in the absence of chemical substance", "setting": "yeast gene YBL099W", "value": 1.4},
      {"measurement": "The level of expressed mRNA in the presence of chemical substance/The level of expressed mRNA in the absence of chemical substance", "setting": "yeast gene YBR052C", "value": 2.6},
      {"measurement": "The level of expressed mRNA in the presence of chemical substance/The level of expressed mRNA in the absence of chemical substance", "setting": "yeast gene YBR068C", "value": 2.5},
      {"measurement": "The level of expressed mRNA in the presence of chemical substance/The level of expressed mRNA in the absence of chemical substance", "setting": "yeast gene YBR127C", "value": 1.1},
      {"measurement": "The level of expressed mRNA in the presence of chemical substance/The level of expressed mRNA in the absence of chemical substance", "setting": "yeast gene YBR132C", "value": 1.8},
      {"measurement": "The level of expressed mRNA in the presence of chemical substance/The level of expressed mRNA in the absence of chemical substance", "setting": "yeast gene YBR207W", "value": 2.0},
      {"measurement": "The level of expressed mRNA in the presence of chemical substance/The level of expressed mRNA in the absence of chemical substance", "setting": "yeast gene YBR293W", "value": 1.8},
      {"measurement": "The level of expressed mRNA in the presence of chemical substance/The level of expressed mRNA in the absence of chemical substance", "setting": "yeast gene YBR294W", "value": 2.6},
      {"measurement": "The level of expressed mRNA in the presence of chemical substance/The level of expressed mRNA in the absence of chemical substance", "setting": "yeast gene YBR295W", "value": 1.1},
      {"measurement": "The level of expressed mRNA in the presence of chemical substance/The level of expressed mRNA in the absence of chemical substance", "setting": "yeast gene YBR298C", "value": 2.3},
      {"measurement": "The level of expressed mRNA in the presence of chemical substance/The level of expressed mRNA in the absence of chemical substance", "setting": "yeast gene YCL025C", "value": 1.7},
      {"measurement": "The level of expressed mRNA in the presence of chemical substance/The level of expressed mRNA in the absence of chemical substance", "setting": "yeast gene YCL038C", "value": 1.6},
      {"measurement": "The level of expressed mRNA in the presence of chemical substance/The level of expressed mRNA in the absence of chemical substance", "setting": "yeast gene YCR037C", "value": 0.8},
      {"measurement": "The level of expressed mRNA in the presence of chemical substance/The level of expressed mRNA in the absence of chemical substance", "setting": "yeast gene YCR098C", "value": 2.0},
      {"measurement": "The level of expressed mRNA in the presence of chemical substance/The level of expressed mRNA in the absence of chemical substance", "setting": "yeast gene YDL128W", "value": 1.0},
      {"measurement": "The level of expressed mRNA in the presence of chemical substance/The level of expressed mRNA in the absence of chemical substance", "setting": "yeast gene YDL198C", "value": 1.4},
      {"measurement": "The level of expressed mRNA in the presence of chemical substance/The level of expressed mRNA in the absence of chemical substance", "setting": "yeast gene YDL210W", "value": 1.1},
      {"measurement": "The level of expressed mRNA in the presence of chemical substance/The level of expressed mRNA in the absence of chemical substance", "setting": "yeast gene YDL245C", "value": 2.2},
      {"measurement": "The level of expressed mRNA in the presence of chemical substance/The level of expressed mRNA in the absence of chemical substance", "setting": "yeast gene YDR038C", "value": 0.9},
      {"measurement": "The level of expressed mRNA in the presence of chemical substance/The level of expressed mRNA in the absence of chemical substance", "setting": "yeast gene YDR039C", "value": 0.9},
      {"measurement": "The level of expressed mRNA in the presence of chemical substance/The level of expressed mRNA in the absence of chemical substance", "setting": "yeast gene YDR086C", "value": 1.4},
      {"measurement": "The level of expressed mRNA in the presence of chemical substance/The level of expressed mRNA in the absence of chemical substance", "setting": "yeast gene YDR270W", "value": 1.3},
      {"measurement": "The level of expressed mRNA in the presence of chemical substance/The level of expressed mRNA in the absence of chemical substance", "setting": "yeast gene YDR298C", "value": 1.3},
      {"measurement": "The level of expressed mRNA in the presence of chemical substance/The level of expressed mRNA in the absence of chemical substance", "setting": "yeast gene YDR342C", "value": 5.7},
      {"measurement": "The level of expressed mRNA in the presence of chemical substance/The level of expressed mRNA in the absence of chemical substance", "setting": "yeast gene YDR343C", "value": 4.6},
      {"measurement": "The level of expressed mRNA in the presence of chemical substance/The level of expressed mRNA in the absence of chemical substance", "setting": "yeast gene YDR345C", "value": 2.6},
      {"measurement": "The level of expressed mRNA in the presence of chemical substance/The level of expressed mRNA in the absence of chemical substance", "setting": "yeast gene YDR387C", "value": 2.2},
      {"measurement": "The level of expressed mRNA in the presence of chemical substance/The level of expressed mRNA in the absence of chemical substance", "setting": "yeast gene YDR497C", "value": 1.3},
      {"measurement": "The level of expressed mRNA in the presence of chemical substance/The level of expressed mRNA in the absence of chemical substance", "setting": "yeast gene YEL027W", "value": 1.1},
      {"measurement": "The level of expressed mRNA in the presence of chemical substance/The level of expressed mRNA in the absence of chemical substance", "setting": "yeast gene YEL063C", "value": 1.3},
      {"measurement": "The level of expressed mRNA in the presence of chemical substance/The level of expressed mRNA in the absence of chemical substance", "setting": "yeast gene YEL065W", "value": 0.4},
      {"measurement": "The level of expressed mRNA in the presence of chemical substance/The level of expressed mRNA in the absence of chemical substance", "setting": "yeast gene YER053C", "value": 1.7},
      {"measurement": "The level of expressed mRNA in the presence of chemical substance/The level of expressed mRNA in the absence of chemical substance", "setting": "yeast gene YFL011W", "value": 3.3},
      {"measurement": "The level of expressed mRNA in the presence of chemical substance/The level of expressed mRNA in the absence of chemical substance", "setting": "yeast gene YFL041W", "value": 1.2},
      {"measurement": "The level of expressed mRNA in the presence of chemical substance/The level of expressed mRNA in the absence of chemical substance", "setting": "yeast gene YFL050C", "value": 2.2},
      {"measurement": "The level of expressed mRNA in the presence of chemical substance/The level of expressed mRNA in the absence of chemical substance", "setting": "yeast gene YFL054C", "value": 2.2},
      {"measurement": "The level of expressed mRNA in the presence of chemical substance/The level of expressed mRNA in the absence of chemical substance", "setting": "yeast gene YGL006W", "value": 2.6},
      {"measurement": "The level of expressed mRNA in the presence of chemical substance/The level of expressed mRNA in the absence of chemical substance", "setting": "yeast gene YGL008C", "value": 0.9},
      {"measurement": "The level of expressed mRNA in the presence of chemical substance/The level of expressed mRNA in the absence of chemical substance", "setting": "yeast gene YGL104C", "value": 1.8},
      {"measurement": "The level of expressed mRNA in the presence of chemical substance/The level of expressed mRNA in the absence of chemical substance", "setting": "yeast gene YGL167C", "value": 1.3},
      {"measurement": "The level of expressed mRNA in the presence of chemical substance/The level of expressed mRNA in the absence of chemical substance", "setting": "yeast gene YGL255W", "value": 0.8},
      {"measurement": "The level of expressed mRNA in the presence of chemical substance/The level of expressed mRNA in the absence of chemical substance", "setting": "yeast gene YGR055W", "value": 0.7},
      {"measurement": "The level of expressed mRNA in the presence of chemical substance/The level of expressed mRNA in the absence of chemical substance", "setting": "yeast gene YGR065C", "value": 1.1},
      {"measurement": "The level of expressed mRNA in the presence of chemical substance/The level of expressed mRNA in the absence of chemical substance", "setting": "yeast gene YGR082W", "value": 1.0},
      {"measurement": "The level of expressed mRNA in the presence of chemical substance/The level of expressed mRNA in the absence of chemical substance", "setting": "yeast gene YGR096W", "value": 4.6},
      {"measurement": "The level of expressed mRNA in the presence of chemical substance/The level of expressed mRNA in the absence of chemical substance", "setting": "yeast gene YGR138C", "value": 1.2},
      {"measurement": "The level of expressed mRNA in the presence of chemical substance/The level of expressed mRNA in the absence of chemical substance", "setting": "yeast gene YGR191W", "value": 1.5},
      {"measurement": "The level of expressed mRNA in the presence of chemical substance/The level of expressed mRNA in the absence of chemical substance", "setting": "yeast gene YGR197C", "value": 1.0},
      {"measurement": "The level of expressed mRNA in the presence of chemical substance/The level of expressed mRNA in the absence of chemical substance", "setting": "yeast gene YGR224W", "value": 1.2}
    ]}
  ]
}
